Patent US12440496B2, “Natriuretic peptide receptor a agonists useful for the treatment of cardiometabolic diseases, kidney disease and diabetes” (Merck Sharp & Dohme LLC, priority 2019, dated 2025)

Target: T1, hNPRA (Homo sapiens, UniProt P16066)
T1 construct: expressed in transfected cells
T1 sequence (P16066 33-1061): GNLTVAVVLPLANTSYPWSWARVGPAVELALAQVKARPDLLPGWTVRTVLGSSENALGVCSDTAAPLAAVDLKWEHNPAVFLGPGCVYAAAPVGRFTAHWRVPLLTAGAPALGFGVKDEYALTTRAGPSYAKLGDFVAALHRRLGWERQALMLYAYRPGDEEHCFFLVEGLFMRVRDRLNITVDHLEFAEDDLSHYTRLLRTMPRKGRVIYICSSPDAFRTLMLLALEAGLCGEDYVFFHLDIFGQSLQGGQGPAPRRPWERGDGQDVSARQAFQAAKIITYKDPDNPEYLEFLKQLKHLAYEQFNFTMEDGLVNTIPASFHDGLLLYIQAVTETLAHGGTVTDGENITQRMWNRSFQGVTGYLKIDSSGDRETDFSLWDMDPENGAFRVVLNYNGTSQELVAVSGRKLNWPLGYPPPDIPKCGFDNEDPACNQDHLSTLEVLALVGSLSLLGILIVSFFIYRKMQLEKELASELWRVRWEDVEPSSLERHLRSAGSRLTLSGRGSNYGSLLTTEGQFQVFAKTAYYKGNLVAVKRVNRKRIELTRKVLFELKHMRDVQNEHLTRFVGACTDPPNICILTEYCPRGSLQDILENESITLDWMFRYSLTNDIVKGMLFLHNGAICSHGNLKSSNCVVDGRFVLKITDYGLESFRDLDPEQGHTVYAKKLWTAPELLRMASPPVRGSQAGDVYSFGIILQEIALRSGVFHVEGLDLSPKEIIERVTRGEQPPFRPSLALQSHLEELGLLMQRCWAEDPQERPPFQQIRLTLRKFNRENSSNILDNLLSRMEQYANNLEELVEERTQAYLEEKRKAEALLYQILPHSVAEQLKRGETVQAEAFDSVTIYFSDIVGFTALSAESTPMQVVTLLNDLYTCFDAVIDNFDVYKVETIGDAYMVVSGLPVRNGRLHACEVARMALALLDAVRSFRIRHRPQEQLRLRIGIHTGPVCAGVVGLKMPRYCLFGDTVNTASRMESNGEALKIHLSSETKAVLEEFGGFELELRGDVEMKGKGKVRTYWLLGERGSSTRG
Experiment: NPRA Functional Cell Assay (cGMP HTRF, NPRA HEK JumpIn stable cells)
Assay type: cell-based
Details: cGMP production, 1 hour at 37° C., 10-point dose response
How it was run: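 cGMP HTRF read-out after 1 hour compound treatment at 37° C. of human NPRA-expressing HEK JumpIn cells, 1500 cells/well, in buffer with phosphodiesterase inhibitors IBMX and RO20 (100 uM each). Signal converted to [cGMP] by calibration curve; EC50s fitted by 4-parameter logistic; 50 nM h-ANP as positive response.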

| Structure (SMILES) | EC50 |
| --- | --- |
| Cc1cc(-c2ccc([C@@H](CCN3CCCCC3)NC(=O)c3cc4cc5c(nc4s3)CC[C@H](C(C)(C)C)C5)cc2)cnc1O [Example 239, (6S)-6-tert-butyl-N-{(1R)-1-[4-(6-hydroxy-5-methylpyridin-3-yl)phenyl]-3-piperidin-1-ylpropyl}-5,6,7,8-tetrahydrothieno[2,3-b]quinoline-2-carboxamide] | 1.4 µM |
| CC(C)(C)[C@H]1CCc2nc3sc(C(=O)N[C@H](CCNC4CCNC4=O)c4ccc(-c5ccc(=O)[nH]c5)cc4)cc3cc2C1 (mixture of isomers) [Example 67, (2-oxopyrrolidin-3-yl)-[rac-(3R)-3-[4-(6-oxo-1H-pyridin-3-yl)phenyl]-3-[rac-(6S)-6-tert-butyl-5,6,7,8-tetrahydrothieno[2,3-b]quinoline-2-carbonyl]amino]propyl] ammonium;formate] | 1.8 µM |
| CC(C)(C)[C@H]1CCc2nc3sc(C(=O)N[C@H](CCN4CCC[C@H]4CO)c4ccccc4)cc3cc2C1 [Example 257, (6S)-6-tert-butyl-N-{(1R)-3-[(2S)-2-(hydroxymethyl)pyrrolidin-1-yl]-1-phenylpropyl}-5,6,7,8-tetrahydrothieno[2,3-b]quinoline-2-carboxamide] | 0.886 µM |
| CC(C)(C)[C@H]1CCc2nc3sc(C(=O)N[C@H](CCN4CCCCC4)c4ccc(-c5ccoc5)cc4)cc3cc2C1 (racemic) [Example 3, rac-(6S)-6-tert-butyl-N-[rac-(1R)-1-[4-(3-furyl)phenyl]-3-(1-piperidyl)propyl]-5,6,7,8-tetrahydrothieno[2,3-b]quinoline-2-carboxamide] | 0.675 µM |
| CN(C)CC[C@@H](NC(=O)c1nc2cc3c(nc2s1)CC[C@H](C(C)(C)C)C3)c1cccc(C(=O)NC2CCN(CC(F)(F)F)C2)c1 (mixture of isomers) [Example 100, rac-(7S)-7-tert-butyl-N-[rac-(1R)-3-(dimethyl-amino)-1-[3-[[1-(2,2,2-trifluoroethyl)pyrrolidin-3-yl]carbamoyl]phenyl]propyl]-5,6,7,8-tetrahydrothiazolo[5,4-b] quinoline-2-carboxamide] | 2 µM |
| CC(C)(C)[C@H]1CCc2nc3sc(C(=O)N[C@H](CCNC4COC4)c4cccc(NS(C)(=O)=O)c4)cc3cc2C1 (racemic) [Example 21, ammonium; methylsulfonyl-[3-[rac-(1R)-3-(oxetan-3-ylamino)-1-[[rac-(6S)-6-tert-butyl-5,6,7,8-tetrahydrothieno[2,3-b]quinoline-2-carbonyl]amino]propyl]phenyl]azanide] | 1.77 µM |
| Cc1[nH]cnc1-c1ccc([C@@H](CCN2CCC(O)CC2)NC(=O)c2nc3cc4c(nc3s2)CC[C@H](C(C)(C)C)C4)cc1 (racemic) [Example 174, rac-(7S)-7-tert-butyl-N-[rac-(1R)-3-(4-hydroxy-1-piperidyl)-1-[4-(5-methyl-1H-imidazol-4-yl)phenyl]propyl]-5,6,7,8-tetrahydrothiazolo[5,4-b]quinoline-2-carboxamide] | 0.991 µM |
| CC(C)(C)[C@H]1CCc2nc3sc(C(=O)N[C@H](CCNCCO)c4ccc(-c5ccc(=O)[nH]c5)cc4)cc3cc2C1 (racemic) [Example 49, 2-hydroxyethyl-[rac-(3R)-3-[4-(6-oxo-1H-pyridin-3-yl)phenyl]-3-[[rac-(6S)-6-tert-butyl-5,6,7,8-tetrahydrothieno[2,3-b]quinoline-2-carbonyl]amino}propyl] ammonium;formate] | 0.682 µM |
| CC(C)(C)[C@H]1CCc2nc3sc(C(=O)N[C@H](CCN4CCC[C@H]4CO)c4ccc(-c5ccc(=O)[nH]c5)cc4)cc3cc2C1 (racemic) [Example 38, rac-(6S)-6-tert-butyl-N-[rac-(1R)-1-[4-(6-oxo-1H-pyridin-3-yl)phenyl]-3-[rac-(2S)-2-(hydroxymethyl)pyrrolidin-1-ium-1-yl]propyl]-5,6,7,8-tetrahydrothieno[2,3-b]quinoline-2-carboxamide;formate] | 0.582 µM |
| CC(C)(C)[C@H]1CCc2nc3sc(C(=O)N[C@H](CCN4C[C@H](O)C[C@H]4CO)c4ccc(-c5ccc(=O)[nH]c5)cc4)cc3cc2C1 (racemic) [Example 71, rac-(6S)-6-tert-butyl-N-[rac-(1R)-1-[4-(6-oxo-1H-pyridin-3-yl)phenyl]-3-[rac-(2S,4R)-4-hydroxy-2-(hydroxymethyl)pyrrolidin-1-ium-1-yl]propyl]-5,6,7,8-tetrahydrothieno[2,3-b]quinoline-2-carboxamide;formate] | 1.99 µM |
| CC(C)(C)[C@H]1CCc2nc3sc(C(=O)N[C@H](CCN4CCC(C(=O)O)CC4)c4ccc(-c5ccc(=O)[nH]c5)cc4)cc3cc2C1 (racemic) [Example 44, 1-[rac-(3R)-3-[4-(6-oxo-1H-pyridin-3-yl)phenyl]-3-[rac-(6S)-6-tert-butyl-5,6,7,8-tetrahydrothieno[2,3-b]quinoline-2-carbonyl]amino]propyl] piperidin-1-ium-4-carboxylic acid;formate] | 0.665 µM |

Continued by falling EC50, values first:

| EC50 | Structure (SMILES) |
| --- | --- |
| 0.566 µM | CN(C)CC[C@@H](NC(=O)c1nc2cc3c(nc2s1)CC[C@H](C(C)(C)C)C3)c1cccc(C(=O)N2CC(N)C2)c1 (racemic) [Example 94, rac-(7S)-7-tert-butyl-N-[rac-(1R)-1-[3-(3-aminoazetidine-1-carbonyl)phenyl]-3-(dimethylamino)propyl]-5,6,7,8-tetrahydrothiazolo [5,4-b]quinoline-2-carboxamide] |
| 0.526 µM | CN1CC(NC(=O)c2cccc([C@@H](CCN3CCC(c4cccc(C(=O)O)c4)CC3)NC(=O)c3nc4cc5c(nc4s3)CC[C@H](C(C)(C)C)C5)c2)C1 (racemic) [Example 107, 3-[1-[rac-(3R)-3-[3-[(1-methylazetidin-1-ium-3-yl)carbamoyl]phenyl]-3-[rac-(7S)-7-tert-butyl-5,6,7,8-tetrahydrothiazolo[5,4-b]quinoline-2-carbonyl]amino]propyl]-4-piperidyl]benzoic acid; 2,2,2-trifluoroacetate] |
| 0.357 µM | CC(C)(C)[C@H]1CCc2nc3sc(C(=O)N[C@H](CCN4CCC(O)CC4)c4ccc(-c5cc[n+]([O-])nc5)cc4)nc3cc2C1 (racemic) [Example 163, rac-(7S)-7-tert-butyl-N-[rac-(1R)-3-(4-hydroxypiperidin-1-ium-1-yl)-1-[4-(1-oxidopyridazin-1-ium-4-yl)phenyl]propyl]-5,6,7,8-tetrahydrothiazolo[5,4-b]quinoline-2-carboxamide; 2,2,2-trifluoroacetate] |
| 0.258 µM | CN1CCC(NC(=O)c2cccc([C@@H](CCN3CCC(O)CC3)NC(=O)c3nc4cc5c(nc4s3)CC[C@H](C(C)(C)C)C5)c2)CC1 (racemic) [Example 141, rac-(7S)-7-tert-butyl-N-[rac-(1R)-3-(4-hydroxy-1-piperidy1)-1-[3-[(1-methyl-4-piperidyl)carbamoyl]phenyl]propyl]-5,6,7,8-tetrahydrothiazolo[5,4-b]quinoline-2-carboxamide] |
| 0.242 µM | CC1([C@H]2CCc3nc4sc(C(=O)N[C@H](CCN5CCC(O)CC5)c5ccc(N6CC(=O)NC6=O)nc5)nc4cc3C2)CC1 [Example 218, (S)-N-((R)-1-(6-(2,4-dioxoimidazolidin-1-yl)pyridin-3-yl)-3-(4-hydroxypiperidin-1-yl)propyl)-7-(1-methylcyclopropyl)-5,6,7,8-tetrahydrothiazolo[5,4-b]quinoline-2-carboxamide] |
| 0.235 µM | CC(C)(C)[C@H]1CCc2nc3sc(C(=O)N[C@H](CCN4CCCCC4)c4ccc(-c5cnc(O)c(F)c5)cc4)cc3cc2C1 [Example 238, (S)-6-(tert-butyl)-N-((R)-1-(4-(5-fluoro-6-hydroxypyridin-3-yl)phenyl)-3-(piperidin-1-yl)propyl)-5,6,7,8-tetrahydrothieno[2,3-b]quinoline-2-carboxamide] |
| 0.102 µM | CC(C)(C)[C@H]1CCc2nc3sc(C(=O)N[C@H](CCN4CCC(O)CC4)c4cccc(C(=O)N5CC(CN6CCCC6)C5)c4)nc3cc2C1 (racemic) [Example 132, rac-(7S)-7-tert-butyl-N-[rac-(1R)-3-(4-hydroxy-1-piperidyl)-1-[3-[3-(pyrrolidin-1-ylmethyl)azetidine-1-carbonyl]phenyl]propyl]-5,6,7,8-tetrahydrothiazolo[5,4-b]quinoline-2-carboxamide] |
| 0.0967 µM | CC(C)(C)[C@H]1CCc2nc3sc(C(=O)N[C@H](CCN4CCC(O)CC4)c4cccc(C(=O)N5CC6(CCCNC6)C5)c4)nc3cc2C1 (racemic) [Example 131, rac-(7S)-7-tert-butyl-N-[rac-(1R)-1-[3-(2,8-diazaspiro[3.5]nonane-2-carbonyl)phenyl]-3-(4-hydroxy-1-piperidyl)propyl]-5,6,7,8-tetrahydrothiazolo[5,4-b]quinoline-2-carboxamide] |
